Data from ChEMBL document CHEMBL1201862, “PubChem BioAssay data set” (2004).
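Step 1: Grow cells in 96-well plates. Step 2: Expose to compound for 48 hours at 5 concentrations. Step 3: Interpolate endpoints linearly; if unreached, use highest concentration. GI50 marks 50% less growth.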 The source made the active and inactive calls. No stated cut-off is given here; in the data, active = GI50 up to about 1.1 µM and inactive = higher.

Tests used:
Assay in all cases: DTP human tumour cell line panel, 48 h
RXF 631 = system: RXF 631
SF-539 = system: SF-539
COLO 205 = system: COLO 205
M19-MEL = system: M19-MEL
KM-20L2 = system: KM-20L2
MDA-MB-435 = system: MDA-MB-435
TK-10 = system: TK-10
OVCAR-8 = system: OVCAR-8
SF-295 = system: SF-295
OVCAR-4 = system: OVCAR-4
MOLT-4 = system: MOLT-4
ACHN = system: ACHN
XF498 = system: XF498
M14 = system: M14
SK-MEL-5 = system: SK-MEL-5
SNB-75 = system: SNB-75
Hs-578T = system: Hs-578T
CAKI-1 = system: CAKI-1
Malme-3M = system: Malme-3M
SW-620 = system: SW-620
K562 = system: K562
MCF7 = system: MCF7
OVCAR-5 = system: OVCAR-5
HOP-92 = system: HOP-92
786-0 = system: 786-0
KM12 = system: KM12
LXFL 529 = system: LXFL 529
HCC 2998 = system: HCC 2998
MDA-N = system: MDA-N
OVCAR-3 = system: OVCAR-3
RPMI-8226 = system: RPMI-8226
SR = system: SR
NCI-H23 = system: NCI-H23
HCT-116 = system: HCT-116
A498 = system: A498
DMS-273 = system: DMS-273
HT-29 = system: HT-29
IGROV-1 = system: IGROV-1
SK-MEL-28 = system: SK-MEL-28
CCRF-CEM = system: CCRF-CEM
LOX IMVI = system: LOX IMVI
HL-60 = system: HL-60
SK-MEL-2 = system: SK-MEL-2
DU-145 = system: DU-145
A549 = system: A549
SNB-78 = system: SNB-78
T47D = system: T47D
UACC-257 = system: UACC-257
U-251 = system: U-251
HCT-15 = system: HCT-15
DMS-114 = system: DMS-114
BT-549 = system: BT-549
HOP-62 = system: HOP-62
PC-3 = system: PC-3
NCI-H226 = system: NCI-H226
SF-268 = system: SF-268
SN12C = system: SN12C
UO-31 = system: UO-31
NCI-H522 = system: NCI-H522
SK-OV-3 = system: SK-OV-3
NCI-H460 = system: NCI-H460
SNB-19 = system: SNB-19
DLD-1 = system: DLD-1
EKVX = system: EKVX
RXF 393 = system: RXF 393
UACC-62 = system: UACC-62
HOP-18 = system: HOP-18

Structure (SMILES): CC[N+]1(C)CCC(O)(c2ccc(OC)cc2)C(C(=O)c2ccc(OC)cc2)C1 (stereo unspecified)
- GI50 (RXF 631): 18.5 µM (inactive)
- GI50 (SF-539): 17.4 µM (inactive)
- GI50 (COLO 205): 3.15 µM (inactive)
- GI50 (M19-MEL): 20.5 µM (inactive)
- GI50 (KM-20L2): 21.9 µM (inactive)
- GI50 (MDA-MB-435): 16.8 µM (inactive)
- GI50 (TK-10): 4.51 µM (inactive)
- GI50 (OVCAR-8): 21 µM (inactive)
- GI50 (SF-295): 20 µM (inactive)
- GI50 (OVCAR-4): 22 µM (inactive)
- GI50 (MOLT-4): 2.23 µM (inactive)
- GI50 (ACHN): 13.1 µM (inactive)
- GI50 (XF498): 11 µM (inactive)
- GI50 (M14): 8.69 µM (inactive)
- GI50 (SK-MEL-5): 15.4 µM (inactive)
- GI50 (SNB-75): 13.7 µM (inactive)
- GI50 (Hs-578T): 0.0368 µM (active)
- GI50 (CAKI-1): 5.9 µM (inactive)
- GI50 (Malme-3M): 6.44 µM (inactive)
- GI50 (SW-620): 2.08 µM (inactive)
- GI50 (K562): 2.25 µM (inactive)
- GI50 (MCF7): 4.4 µM (inactive)
- GI50 (OVCAR-5): 18.7 µM (inactive)
- GI50 (HOP-92): 2.63 µM (inactive)
- GI50 (786-0): 3.18 µM (inactive)
- GI50 (KM12): 16 µM (inactive)
- GI50 (LXFL 529): 3.49 µM (inactive)
- GI50 (HCC 2998): 19.6 µM (inactive)
- GI50 (MDA-N): 16.6 µM (inactive)
- GI50 (OVCAR-3): 12.4 µM (inactive)
- GI50 (RPMI-8226): 1.91 µM (inactive)
- GI50 (SR): 2.34 µM (inactive)
- GI50 (NCI-H23): 17.9 µM (inactive)
- GI50 (HCT-116): 9.27 µM (inactive)
- GI50 (A498): 17.6 µM (inactive)
- GI50 (DMS-273): 19 µM (inactive)
- GI50 (HT-29): 7.03 µM (inactive)
- GI50 (IGROV-1): 20.5 µM (inactive)
- GI50 (SK-MEL-28): 15.1 µM (inactive)
- GI50 (CCRF-CEM): 2.02 µM (inactive)
- GI50 (LOX IMVI): 16.3 µM (inactive)
- GI50 (HL-60): 2.52 µM (inactive)
- GI50 (SK-MEL-2): 18.8 µM (inactive)
- GI50 (DU-145): 15.9 µM (inactive)
- GI50 (A549): 19.9 µM (inactive)
- GI50 (SNB-78): 14.8 µM (inactive)
- GI50 (T47D): 13.4 µM (inactive)
- GI50 (UACC-257): 17.5 µM (inactive)
- GI50 (U-251): 1.54 µM (inactive)
- GI50 (HCT-15): 10.2 µM
- GI50 (DMS-114): 19.9 µM (inactive)
- GI50 (BT-549): 16 µM (inactive)
- GI50 (HOP-62): 18.9 µM (inactive)
- GI50 (PC-3): 17.7 µM (inactive)
- GI50 (NCI-H226): 18.7 µM (inactive)
- GI50 (SF-268): 21.2 µM (inactive)
- GI50 (SN12C): 18.2 µM (inactive)
- GI50 (UO-31): 18.7 µM (inactive)
- GI50 (NCI-H522): 1.98 µM (inactive)
- GI50 (SK-OV-3): 18 µM (inactive)
- GI50 (NCI-H460): 21.8 µM (inactive)
- GI50 (SNB-19): 32.1 µM (inactive)
- GI50 (DLD-1): 2.88 µM (inactive)
- GI50 (EKVX): 19.8 µM (inactive)
- GI50 (RXF 393): 7 µM (inactive)
- GI50 (UACC-62): 18.8 µM (inactive)
- GI50 (HOP-18): 14.7 µM (inactive)

Structure (SMILES): CC(C)c1cccc(=O)c(O)c1 [HINOKITIOL]
- GI50 (RXF 631): 30.5 µM (inactive)
- GI50 (SF-539): 5.31 µM (inactive)
- GI50 (COLO 205): 4.24 µM (inactive)
- GI50 (M19-MEL): 13.3 µM (inactive)
- GI50 (KM-20L2): 4.27 µM (inactive)
- GI50 (TK-10): 58.1 µM (inactive)
- GI50 (OVCAR-8): 4.45 µM (inactive)
- GI50 (SF-295): 6.52 µM (inactive)
- GI50 (OVCAR-4): 7.23 µM (inactive)
- GI50 (MOLT-4): 3.18 µM (inactive)
- GI50 (ACHN): 3.33 µM (inactive)
- GI50 (XF498): 4.24 µM (inactive)
- GI50 (M14): 8.49 µM (inactive)
- GI50 (SK-MEL-5): 24.5 µM (inactive)
- GI50 (SNB-75): 24.4 µM (inactive)
- GI50 (CAKI-1): 16.1 µM (inactive)
- GI50 (Malme-3M): 12.6 µM (inactive)
- GI50 (SW-620): 5.9 µM (inactive)
- GI50 (K562): 6.38 µM (inactive)
- GI50 (OVCAR-5): 15.7 µM (inactive)
- GI50 (HOP-92): 15.9 µM (inactive)
- GI50 (786-0): 5.22 µM (inactive)
- GI50 (KM12): 12.4 µM (inactive)
- GI50 (LXFL 529): 6.85 µM (inactive)
- GI50 (HCC 2998): 9.23 µM (inactive)
- GI50 (OVCAR-3): 4.05 µM (inactive)
- GI50 (RPMI-8226): 7.93 µM (inactive)
- GI50 (SR): 2.84 µM (inactive)
- GI50 (NCI-H23): 8.09 µM (inactive)
- GI50 (HCT-116): 3.91 µM (inactive)
- GI50 (A498): 44.1 µM (inactive)
- GI50 (DMS-273): 3.83 µM (inactive)
- GI50 (HT-29): 4.27 µM (inactive)
- GI50 (IGROV-1): 13.5 µM (inactive)
- GI50 (SK-MEL-28): 18.9 µM (inactive)
- GI50 (CCRF-CEM): 2.79 µM (inactive)
- GI50 (LOX IMVI): 5.06 µM (inactive)
- GI50 (HL-60): 2.49 µM (inactive)
- GI50 (SK-MEL-2): 12.1 µM (inactive)
- GI50 (A549): 9.35 µM (inactive)
- GI50 (SNB-78): 48.3 µM (inactive)
- GI50 (UACC-257): 4.1 µM (inactive)
- GI50 (U-251): 9.12 µM (inactive)
- GI50 (HCT-15): 5.14 µM
- GI50 (DMS-114): 3.72 µM (inactive)
- GI50 (HOP-62): 10.9 µM (inactive)
- GI50 (NCI-H226): 11 µM (inactive)
- GI50 (SF-268): 6.37 µM (inactive)
- GI50 (SN12C): 11.2 µM (inactive)
- GI50 (UO-31): 10.5 µM (inactive)
- GI50 (NCI-H522): 3.82 µM (inactive)
- GI50 (SK-OV-3): 49.4 µM (inactive)
- GI50 (NCI-H460): 6.98 µM (inactive)
- GI50 (SNB-19): 10.9 µM (inactive)
- GI50 (DLD-1): 5.31 µM (inactive)
- GI50 (EKVX): 17.3 µM (inactive)
- GI50 (RXF 393): 25.4 µM (inactive)
- GI50 (UACC-62): 5.79 µM (inactive)
- GI50 (HOP-18): 15.3 µM (inactive)
